{"source": "paper PMC7180948", "about": "“New Insights into 4-Anilinoquinazolines as Inhibitors of Cardiac Troponin I–Interacting Kinase (TNNi3K)” (Molecules, 2020)", "assay_in_all_cases": "biochemical", "parameters_in_all_cases": "KINOMEscan competition binding panel (Eurofins DiscoverX), single concentration, % inhibition", "details_in_all_cases": "read-out: 7 at 1 µM % inhibition", "key": {"CAMK2G": {"molecular_target": "CAMK2G (Homo sapiens, UniProt Q13555)", "how_it_was_run": "(§1)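 KINOMEscan selectivity screen; >400 human kinases; compound at 1 µM, single concentration.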"}, "CAMKK2": {"molecular_target": "CAMKK2 (Homo sapiens, UniProt Q96RR4)", "how_it_was_run": "as §1"}, "CHEK1": {"molecular_target": "CHEK1 (Homo sapiens, UniProt O14757)", "sequence (O14757 whole entry)": "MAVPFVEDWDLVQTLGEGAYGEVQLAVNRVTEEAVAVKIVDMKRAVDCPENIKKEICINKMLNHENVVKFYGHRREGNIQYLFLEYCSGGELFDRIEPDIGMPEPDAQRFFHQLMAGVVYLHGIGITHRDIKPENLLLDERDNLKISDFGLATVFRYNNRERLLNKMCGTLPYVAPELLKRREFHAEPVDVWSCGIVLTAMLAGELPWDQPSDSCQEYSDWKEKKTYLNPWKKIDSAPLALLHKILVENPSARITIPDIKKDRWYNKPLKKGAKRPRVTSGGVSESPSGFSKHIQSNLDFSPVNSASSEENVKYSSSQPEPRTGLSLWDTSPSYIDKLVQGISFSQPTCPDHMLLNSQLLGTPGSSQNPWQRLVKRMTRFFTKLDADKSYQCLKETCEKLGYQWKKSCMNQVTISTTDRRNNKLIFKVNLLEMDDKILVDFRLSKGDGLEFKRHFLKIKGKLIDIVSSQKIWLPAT", "how_it_was_run": "as §1"}, "DYRK2": {"molecular_target": "DYRK2 (Homo sapiens, UniProt Q92630)", "how_it_was_run": "as §1"}, "ERK1": {"molecular_target": "T1, ERK1 (Homo sapiens, UniProt P27361)", "T1 construct": "gene MAPK3", "how_it_was_run": "as §1"}, "FLT3": {"molecular_target": "FLT3 (Homo sapiens, UniProt P36888)", "how_it_was_run": "as §1"}, "FLT3(ITD,D835V)": {"molecular_target": "FLT3(ITD,D835V) (Homo sapiens, UniProt P36888, D835V/ITD)", "how_it_was_run": "as §1"}, "FLT3(K663Q)": {"molecular_target": "FLT3(K663Q) (Homo sapiens, UniProt P36888, K663Q)", "how_it_was_run": "as §1"}, "IRAK1": {"molecular_target": "IRAK1 (Homo sapiens, UniProt P51617)", "sequence (P51617 whole entry)": "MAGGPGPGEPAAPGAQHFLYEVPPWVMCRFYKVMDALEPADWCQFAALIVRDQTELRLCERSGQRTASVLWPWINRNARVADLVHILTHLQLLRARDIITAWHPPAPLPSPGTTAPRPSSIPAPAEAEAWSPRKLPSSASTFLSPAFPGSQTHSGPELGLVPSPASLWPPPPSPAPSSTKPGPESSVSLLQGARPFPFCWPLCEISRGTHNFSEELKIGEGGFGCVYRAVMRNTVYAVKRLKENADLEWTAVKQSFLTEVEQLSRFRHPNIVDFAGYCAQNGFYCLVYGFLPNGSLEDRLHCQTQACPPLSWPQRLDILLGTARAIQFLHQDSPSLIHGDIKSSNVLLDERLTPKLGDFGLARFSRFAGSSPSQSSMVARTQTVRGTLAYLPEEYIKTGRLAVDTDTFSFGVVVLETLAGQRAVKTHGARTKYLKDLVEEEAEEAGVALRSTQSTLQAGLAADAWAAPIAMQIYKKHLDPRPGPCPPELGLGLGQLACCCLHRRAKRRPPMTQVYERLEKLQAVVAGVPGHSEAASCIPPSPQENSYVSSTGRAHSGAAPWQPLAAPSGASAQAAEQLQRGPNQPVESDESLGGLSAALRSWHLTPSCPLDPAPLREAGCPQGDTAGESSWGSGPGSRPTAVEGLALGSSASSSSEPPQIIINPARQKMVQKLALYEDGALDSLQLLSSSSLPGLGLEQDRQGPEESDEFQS", "how_it_was_run": "as §1"}, "JNK2": {"molecular_target": "T2, JNK2 (Homo sapiens, UniProt P45984)", "T2 construct": "gene MAPK9", "T2 sequence (P45984 whole entry)": "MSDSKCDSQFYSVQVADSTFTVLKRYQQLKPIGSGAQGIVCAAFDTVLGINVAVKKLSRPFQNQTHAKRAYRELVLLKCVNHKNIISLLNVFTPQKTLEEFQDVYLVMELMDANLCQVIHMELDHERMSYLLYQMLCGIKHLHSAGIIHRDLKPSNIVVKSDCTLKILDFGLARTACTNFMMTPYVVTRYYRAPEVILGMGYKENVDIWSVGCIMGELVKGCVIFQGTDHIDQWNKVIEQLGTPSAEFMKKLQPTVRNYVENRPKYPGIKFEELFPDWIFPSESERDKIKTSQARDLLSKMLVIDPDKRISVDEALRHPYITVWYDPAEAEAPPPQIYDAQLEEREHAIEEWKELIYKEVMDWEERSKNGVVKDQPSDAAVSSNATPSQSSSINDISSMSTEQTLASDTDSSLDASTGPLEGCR", "how_it_was_run": "as §1"}, "JNK3": {"molecular_target": "T3, JNK3 (Homo sapiens, UniProt P53779)", "T3 construct": "gene MAPK10", "T3 sequence (P53779 whole entry)": "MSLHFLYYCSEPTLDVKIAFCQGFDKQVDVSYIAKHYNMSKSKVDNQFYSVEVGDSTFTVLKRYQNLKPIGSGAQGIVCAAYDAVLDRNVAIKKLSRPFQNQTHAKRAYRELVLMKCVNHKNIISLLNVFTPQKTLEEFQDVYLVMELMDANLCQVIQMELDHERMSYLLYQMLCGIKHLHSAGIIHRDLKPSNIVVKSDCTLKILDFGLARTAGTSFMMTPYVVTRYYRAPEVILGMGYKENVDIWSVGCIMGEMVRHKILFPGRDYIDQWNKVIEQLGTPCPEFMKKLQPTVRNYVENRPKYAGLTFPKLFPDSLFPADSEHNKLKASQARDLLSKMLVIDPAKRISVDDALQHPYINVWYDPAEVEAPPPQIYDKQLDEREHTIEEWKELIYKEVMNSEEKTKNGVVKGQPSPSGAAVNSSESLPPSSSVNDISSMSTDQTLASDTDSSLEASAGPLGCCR", "how_it_was_run": "as §1"}, "MLCK": {"molecular_target": "T4, MLCK (Homo sapiens, UniProt Q32MK0)", "T4 construct": "gene MYLK3", "how_it_was_run": "as §1"}, "MST3": {"molecular_target": "T5, MST3 (Homo sapiens, UniProt Q9Y6E0)", "T5 construct": "gene STK24", "how_it_was_run": "as §1"}, "NEK6": {"molecular_target": "NEK6 (Homo sapiens, UniProt Q9HC98)", "sequence (Q9HC98 whole entry)": "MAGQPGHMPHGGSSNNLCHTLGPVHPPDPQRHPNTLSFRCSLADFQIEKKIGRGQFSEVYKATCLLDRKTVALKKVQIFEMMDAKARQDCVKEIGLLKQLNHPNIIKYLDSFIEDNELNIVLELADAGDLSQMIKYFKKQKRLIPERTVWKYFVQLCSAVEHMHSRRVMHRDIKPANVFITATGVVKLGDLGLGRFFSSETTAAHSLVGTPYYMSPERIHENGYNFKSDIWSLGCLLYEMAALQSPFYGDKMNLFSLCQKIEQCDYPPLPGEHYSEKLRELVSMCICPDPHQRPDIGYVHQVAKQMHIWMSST", "how_it_was_run": "as §1"}, "PAK2": {"molecular_target": "PAK2 (Homo sapiens, UniProt Q13177)", "sequence (Q13177 whole entry)": "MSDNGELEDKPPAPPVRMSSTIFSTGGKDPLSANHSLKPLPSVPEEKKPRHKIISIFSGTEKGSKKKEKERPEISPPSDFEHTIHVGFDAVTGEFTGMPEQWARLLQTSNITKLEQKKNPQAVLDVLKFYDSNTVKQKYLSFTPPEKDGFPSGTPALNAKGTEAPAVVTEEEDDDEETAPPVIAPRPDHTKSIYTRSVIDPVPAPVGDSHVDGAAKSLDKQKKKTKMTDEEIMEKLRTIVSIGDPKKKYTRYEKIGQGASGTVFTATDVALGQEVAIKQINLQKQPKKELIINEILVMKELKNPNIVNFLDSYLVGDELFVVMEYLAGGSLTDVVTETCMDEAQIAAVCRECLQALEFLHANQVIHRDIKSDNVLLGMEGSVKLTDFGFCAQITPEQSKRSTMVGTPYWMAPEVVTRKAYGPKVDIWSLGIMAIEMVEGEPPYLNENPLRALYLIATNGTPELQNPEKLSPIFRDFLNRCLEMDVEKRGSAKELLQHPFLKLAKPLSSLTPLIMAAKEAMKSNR", "how_it_was_run": "as §1"}, "PFTK1": {"molecular_target": "T6, PFTK1 (Homo sapiens, UniProt O94921)", "T6 construct": "gene CDK14", "T6 sequence (O94921 whole entry)": "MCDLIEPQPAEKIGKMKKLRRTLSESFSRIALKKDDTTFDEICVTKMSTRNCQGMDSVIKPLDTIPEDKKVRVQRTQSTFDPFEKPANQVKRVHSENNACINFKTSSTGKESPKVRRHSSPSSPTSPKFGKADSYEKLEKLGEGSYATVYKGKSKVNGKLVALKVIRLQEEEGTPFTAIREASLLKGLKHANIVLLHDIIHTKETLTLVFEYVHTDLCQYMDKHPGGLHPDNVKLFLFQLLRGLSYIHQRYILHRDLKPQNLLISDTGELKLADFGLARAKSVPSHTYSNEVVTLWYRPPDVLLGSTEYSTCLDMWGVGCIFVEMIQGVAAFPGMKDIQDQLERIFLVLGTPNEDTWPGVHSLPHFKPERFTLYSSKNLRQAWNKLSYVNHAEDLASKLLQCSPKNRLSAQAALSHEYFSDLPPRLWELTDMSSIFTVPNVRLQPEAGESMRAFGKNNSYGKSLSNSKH", "how_it_was_run": "as §1"}, "PRKCI": {"molecular_target": "PRKCI (Homo sapiens, UniProt P41743)", "sequence (P41743 whole entry)": "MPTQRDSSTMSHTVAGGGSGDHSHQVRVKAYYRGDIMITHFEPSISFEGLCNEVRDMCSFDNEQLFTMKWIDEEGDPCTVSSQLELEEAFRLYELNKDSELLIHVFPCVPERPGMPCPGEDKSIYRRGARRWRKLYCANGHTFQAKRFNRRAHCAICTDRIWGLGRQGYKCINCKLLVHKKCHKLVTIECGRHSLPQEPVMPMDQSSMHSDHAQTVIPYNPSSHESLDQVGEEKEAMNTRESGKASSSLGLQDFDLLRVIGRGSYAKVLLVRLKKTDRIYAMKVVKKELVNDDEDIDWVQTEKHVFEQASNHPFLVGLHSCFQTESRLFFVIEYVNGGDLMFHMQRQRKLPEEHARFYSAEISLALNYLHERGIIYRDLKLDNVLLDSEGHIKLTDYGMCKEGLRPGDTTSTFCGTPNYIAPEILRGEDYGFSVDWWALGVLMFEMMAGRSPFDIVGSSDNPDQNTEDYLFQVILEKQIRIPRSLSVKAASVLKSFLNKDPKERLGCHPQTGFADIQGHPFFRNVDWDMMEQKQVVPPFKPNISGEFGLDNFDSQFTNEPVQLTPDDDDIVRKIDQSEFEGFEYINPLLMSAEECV", "how_it_was_run": "as §1"}, "ROS1": {"molecular_target": "ROS1 (Homo sapiens, UniProt P08922)", "how_it_was_run": "as §1"}, "TGFBR2": {"molecular_target": "TGFBR2 (Homo sapiens, UniProt P37173)", "how_it_was_run": "as §1"}, "TIE1": {"molecular_target": "TIE1 (Homo sapiens, UniProt P35590)", "how_it_was_run": "as §1"}, "TSSK1B": {"molecular_target": "TSSK1B (Homo sapiens, UniProt Q9BXA7)", "sequence (Q9BXA7 whole entry)": "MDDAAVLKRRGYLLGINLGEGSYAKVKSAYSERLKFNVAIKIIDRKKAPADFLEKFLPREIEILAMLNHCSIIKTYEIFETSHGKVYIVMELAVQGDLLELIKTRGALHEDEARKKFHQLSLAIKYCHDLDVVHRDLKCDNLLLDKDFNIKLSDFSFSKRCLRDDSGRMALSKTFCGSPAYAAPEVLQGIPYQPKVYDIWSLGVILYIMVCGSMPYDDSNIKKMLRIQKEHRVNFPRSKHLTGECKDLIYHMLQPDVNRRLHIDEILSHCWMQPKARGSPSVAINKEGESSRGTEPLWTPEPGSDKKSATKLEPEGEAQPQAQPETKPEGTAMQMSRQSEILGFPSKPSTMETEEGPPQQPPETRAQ", "how_it_was_run": "as §1"}, "ULK2": {"molecular_target": "ULK2 (Homo sapiens, UniProt Q8IYT8)", "how_it_was_run": "as §1"}, "WEE1": {"molecular_target": "WEE1 (Homo sapiens, UniProt P30291)", "sequence (P30291 whole entry)": "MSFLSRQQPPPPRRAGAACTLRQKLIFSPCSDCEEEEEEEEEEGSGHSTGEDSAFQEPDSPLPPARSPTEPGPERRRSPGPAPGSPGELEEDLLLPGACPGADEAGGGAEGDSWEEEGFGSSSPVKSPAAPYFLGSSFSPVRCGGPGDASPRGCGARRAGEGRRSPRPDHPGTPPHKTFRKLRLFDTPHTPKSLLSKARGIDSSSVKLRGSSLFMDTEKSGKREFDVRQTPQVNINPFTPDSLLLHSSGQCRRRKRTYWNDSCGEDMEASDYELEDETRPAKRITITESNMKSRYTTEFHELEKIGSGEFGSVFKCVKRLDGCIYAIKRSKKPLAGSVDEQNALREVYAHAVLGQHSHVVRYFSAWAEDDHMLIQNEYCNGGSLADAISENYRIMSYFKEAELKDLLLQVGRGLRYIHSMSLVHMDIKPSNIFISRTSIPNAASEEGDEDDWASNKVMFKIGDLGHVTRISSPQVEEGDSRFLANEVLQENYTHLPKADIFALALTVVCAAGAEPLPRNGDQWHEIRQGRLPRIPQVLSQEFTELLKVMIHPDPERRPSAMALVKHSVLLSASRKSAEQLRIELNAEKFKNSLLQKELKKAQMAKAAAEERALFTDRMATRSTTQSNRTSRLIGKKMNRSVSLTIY", "how_it_was_run": "as §1"}, "YANK2": {"molecular_target": "T7, YANK2 (Homo sapiens, UniProt Q9NY57)", "T7 construct": "gene STK32B", "how_it_was_run": "as §1"}}}
{"smiles": "CNS(=O)(=O)c1ccc(N(C)C)c(Nc2ncnc3cc(OC)c(OC)cc23)c1", "note": "[compound 7, 3-((6,7-dimethoxyquinazolin-4-yl)amino)-4-(dimethylamino)-N-methylbenzenesulfonamide]", "values": [{"measurement": "inhibition at 1 µM", "setting": "CAMK2G", "value": 0, "unit": "%"}, {"measurement": "inhibition at 1 µM", "setting": "CAMKK2", "value": 0, "unit": "%"}, {"measurement": "inhibition at 1 µM", "setting": "CHEK1", "value": 0, "unit": "%"}, {"measurement": "inhibition at 1 µM", "setting": "DYRK2", "value": 0, "unit": "%"}, {"measurement": "inhibition at 1 µM", "setting": "ERK1", "value": 0, "unit": "%"}, {"measurement": "inhibition at 1 µM", "setting": "FLT3", "value": 7, "unit": "%"}, {"measurement": "inhibition at 1 µM", "setting": "FLT3(ITD,D835V)", "value": 34, "unit": "%"}, {"measurement": "inhibition at 1 µM", "setting": "FLT3(K663Q)", "value": 7, "unit": "%"}, {"measurement": "inhibition at 1 µM", "setting": "IRAK1", "value": 68, "unit": "%"}, {"measurement": "inhibition at 1 µM", "setting": "JNK2", "value": 0, "unit": "%"}, {"measurement": "inhibition at 1 µM", "setting": "JNK3", "value": 0, "unit": "%"}, {"measurement": "inhibition at 1 µM", "setting": "MLCK", "value": 0, "unit": "%"}, {"measurement": "inhibition at 1 µM", "setting": "MST3", "value": 0, "unit": "%"}, {"measurement": "inhibition at 1 µM", "setting": "NEK6", "value": 0, "unit": "%"}, {"measurement": "inhibition at 1 µM", "setting": "PAK2", "value": 0, "unit": "%"}, {"measurement": "inhibition at 1 µM", "setting": "PFTK1", "value": 0, "unit": "%"}, {"measurement": "inhibition at 1 µM", "setting": "PRKCI", "value": 5, "unit": "%"}, {"measurement": "inhibition at 1 µM", "setting": "ROS1", "value": 0, "unit": "%"}, {"measurement": "inhibition at 1 µM", "setting": "TGFBR2", "value": 0, "unit": "%"}, {"measurement": "inhibition at 1 µM", "setting": "TIE1", "value": 0, "unit": "%"}, {"measurement": "inhibition at 1 µM", "setting": "TSSK1B", "value": 0, "unit": "%"}, {"measurement": "inhibition at 1 µM", "setting": "ULK2", "value": 19, "unit": "%"}, {"measurement": "inhibition at 1 µM", "setting": "WEE1", "value": 0, "unit": "%"}, {"measurement": "inhibition at 1 µM", "setting": "YANK2", "value": 0, "unit": "%"}]}
